Results from paper PMC3909101, “Chemical Rescue and Inhibition Studies to Determine the Role of Arg301 in Phosphite Dehydrogenase” (PLoS ONE, 2014).
Several values for one entry are separate records, joined by “and”; a condition that tells them apart may be missing. Equal values may be shown once. Entries after “also recorded” stand apart in the source; their conditions may differ. Read-outs that look alike come from different tables or passages of the source.

Assays:
H292G mutant of wt-PTDH = H292G mutant of wt-PTDH (Stutzerimonas stutzeri, UniProt O69054, H292G); assay type: biochemical, Pseudomonas stutzeri WM88; conditions: 10–100 mM reagent
H292A mutant of wt-PTDH = H292A mutant of wt-PTDH (Stutzerimonas stutzeri, UniProt O69054, H292A); assay type: biochemical, Pseudomonas stutzeri WM88; conditions: 10–100 mM reagent
[1] = set-up: method as in earlier work; conditions: cited from earlier work
17X-PTDH-R301A [2] = target: T1, 17X-PTDH-R301A (Stutzerimonas stutzeri (Pseudomonas stutzeri), UniProt O69054, D13E/E130K/I150F/M26I/Q132R/Q137R/R301A/V71I, form not given); assay type: biochemical, Pseudomonas stutzeri WM88; conditions: for k rescue/ K m, phosphite: R301A with saturating rescue reagent; for EC50: pH 7.25, 25°C, read-out: K R (concentration of rescue reagent at which half-maximal rate was observed); for K m, phosphite (apparent): rescue agent and NAD+ saturating (>10 K R); for Rescue of activity of the R301A mutant: exogenous reagent, unsuccessful ones tested at 20–100 mM depending on solubility
17X-PTDH-R301A [3] = target: T1, 17X-PTDH-R301A; assay type: biochemical, Pseudomonas stutzeri WM88; conditions: saturating rescue reagent (>20 K R), deuterated vs protiated phosphite, pH 7.25, 25°C
[4] = Expected proportion of aminoguanidine in unprotonated and protonated states at various pH values; assay type: physicochemical
17X-PTDH-R301A [5] = target: T1, 17X-PTDH-R301A; assay type: biochemical, Pseudomonas stutzeri WM88
17X-PTDH [6] = assay: Sulfite inhibition of 17X-PTDH; assay type: biochemical, Pseudomonas stutzeri WM88; conditions: competitive vs phosphite, 4 mM NAD+, pH 7.25, read-out: K is
Protocol: Reactions were performed in 100 mM MOPS (pH 7.25) at saturating concentrations of 4 mM NAD^+. Sodium sulfite was adjusted to the desired concentration by serial dilution from a 0.5 M stock solution. Sulfite concentration was adjusted to 0, 50, 100, 150, 200 or 300 µM for R301A or 0, 0.5, 1, 5, 10 or 20 µM for 17X-PTDH. An experiment was also performed with 17X-PTDH-R301A and saturating concentrations of 300 mM aminoguanidine, with sulfite concentrations of 0, 100, 200, 300, 400 or 500 µM. The reaction was initiated by addition of PTDH (0.1 µM final concentration, 5 µM for R301A). At each concentration of inhibitor, phosphite concentration was varied. The data was analyzed in GraFit 7.0 [28] using the equation for competitive inhibition (Equation 3) to fit all of the data, where I is the inhibitor concentration and K is the dissociation constant for a competitive inhibitor [29]. [drawing 5] (3)

17X-PTDH-R301A [7] = target: T1, 17X-PTDH-R301A; assay type: biochemical, Pseudomonas stutzeri WM88; conditions: pH 7.25, read-out: K is
R301A = assay: Phosphite Kd and Km for R301A; assay type: biochemical, Pseudomonas stutzeri WM88
17X-PTDH [8] = assay: Phosphite dissociation constant for 17X-PTDH by the method of Klinman and Matthews; assay type: biochemical, Pseudomonas stutzeri WM88; conditions: calculated from ^D(V/K), ^DV and K m,Phosphite
[9] = wt enzyme, pH 7.25, cited from earlier work
[10] = wt enzyme, pH 7.25; ref (1) Relyea et al., 2005; cited from earlier work
[11] = R301A, k cat,apparent at saturating rescue reagent, 100 mM MOPS pH 7.25, 25°C, 4 mM NAD+
[12] = 0–2.0 mM aminoguanidine, 1 M phosphite, 4 mM NAD+, first experiment
[13] = repeat with a different batch of enzyme and reagents

T1 sequence (O69054 1-329 D13E/E130K/I150F/M26I/Q132R/Q137R/R301A/V71I): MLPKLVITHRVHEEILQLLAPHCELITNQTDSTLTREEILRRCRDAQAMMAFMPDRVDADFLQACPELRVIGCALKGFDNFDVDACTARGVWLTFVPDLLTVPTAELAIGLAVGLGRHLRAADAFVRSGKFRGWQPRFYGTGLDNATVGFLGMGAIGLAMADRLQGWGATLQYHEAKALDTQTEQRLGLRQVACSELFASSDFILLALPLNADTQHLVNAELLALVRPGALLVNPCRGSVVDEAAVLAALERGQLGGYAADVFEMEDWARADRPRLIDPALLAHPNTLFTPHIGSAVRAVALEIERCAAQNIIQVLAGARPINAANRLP

Molecule: c1nc[nH]n1 [1,2,4-triazole]
- Rescue of activity of H292G mutant (H292G mutant of wt-PTDH): no activity; also recorded: failed to result in any activity
- Rescue of activity of H292A mutant (H292A mutant of wt-PTDH): no activity; also recorded: failed to result in any activity

Molecule: N=C(N)NC(N)=O [N-guanylurea]
- pK a (conjugate acid of rescue reagent) [1]: 3.9
- [drawing 6] (Brønsted plot ordinate; uses K R corrected for free base concentration at pH 7.25) (17X-PTDH-R301A [2]; pH 7.25): −2.9 (0.2)
- k rescue (17X-PTDH-R301A [2]; pH 7.25): 0.42 (0.07) s^−1

Molecule: CC(=N)N [acetamidine]
- pK a (conjugate acid of rescue reagent) [1]: 12.5
- k rescue/ K m, phosphite (17X-PTDH-R301A [2]; pH 7.25): 6.7 (1.1) M^−1 s^−1
- k rescue (17X-PTDH-R301A [2]; [11]): 0.86 (0.08) s^−1
- [drawing 6] (Brønsted plot ordinate; uses K R corrected for free base concentration at pH 7.25) (17X-PTDH-R301A [2]; R301A, pH 7.25): 6.3 (0.1)
- EC50 (17X-PTDH-R301A [2]; R301A): 63 mM
- K m, phosphite (apparent) (17X-PTDH-R301A [2]; R301A, pH 7.25): 130 (20) mM
- Rescue of activity of the R301A mutant (17X-PTDH-R301A [2]): markedly improved
- ^D k cat (17X-PTDH-R301A [3]): 1.5 (0.1)
- ^D k cat/K m (17X-PTDH-R301A [3]): 1.8 (0.6)

Molecule: N=C(N)NN [aminoguanidine]
- Ratio of concentrations of reagent (pH 7.5 : pH 7), protonated [4]: 1.0
- Ratio of concentrations of reagent (pH 7.5 : pH 7), unprotonated [4]: 3.2
- Ratio of concentrations of reagent (pH 8 : pH 7), protonated [4]: 1.0
- Ratio of concentrations of reagent (pH 8 : pH 7), unprotonated [4]: 10.0
- Protonated (RNH3^+) proportion ([4]; pH 7.0): 99.99%
- Unprotonated (RNH2) proportion ([4]; pH 7.0): 0.01%
- Protonated (RNH3^+) proportion ([4]; pH 7.5): 99.97%
- Unprotonated (RNH2) proportion ([4]; pH 7.5): 0.03%
- Protonated (RNH3^+) proportion ([4]; pH 8.0): 99.90%
- Unprotonated (RNH2) proportion ([4]; pH 8.0): 0.10%
- pK a (conjugate acid of rescue reagent) [1]: 11.0
- k rescue/ K m, phosphite (17X-PTDH-R301A [2]; pH 7.25): 180 (10) M^−1 s^−1
- k rescue (17X-PTDH-R301A [2]; [11]): 1.4 (0.1) s^−1
- [drawing 6] (Brønsted plot ordinate; uses K R corrected for free base concentration at pH 7.25) (17X-PTDH-R301A [2]; R301A, pH 7.25): 5.3 (0.1)
- EC50 (17X-PTDH-R301A [2]; R301A): 32 mM
- K m, phosphite (apparent) (17X-PTDH-R301A [2]; R301A, pH 7.25): 7.4 (0.5) mM
- Activity with saturating rescue agent relative to wild-type activity (17X-PTDH-R301A [2]; R301A, saturating substrate and rescue agent): about 40%
- Rescue of activity of the R301A mutant (17X-PTDH-R301A [2]): markedly improved
- ^D k cat (17X-PTDH-R301A [3]): 2.1 (0.1)
- ^D k cat/K m (17X-PTDH-R301A [3]): 3.1 (0.3)
- Ratio of slopes of k cat,apparent vs rescue agent concentration, pH 7.5 : pH 7.0 (17X-PTDH-R301A [5]; [12]): 1.2±0.1
- Ratio of slopes of k cat,apparent vs rescue agent concentration, pH 8.0 : pH 7.0 (17X-PTDH-R301A [5]; [12]): 3.7±0.3
- Ratio of slopes, pH 7.5 : pH 7.0 (17X-PTDH-R301A [5]; [13]): 1.6±0.1
- Ratio of slopes, pH 8.0 : pH 7.0 (17X-PTDH-R301A [5]; [13]): 3.0±0.1

Molecule: CCCCN [butylamine, n-butylamine]
- Rescue of activity of the R301A mutant (17X-PTDH-R301A [2]): not observed

Molecule: CCN [ethylamine]
- Rescue of activity of the R301A mutant (17X-PTDH-R301A [2]): not observed

Molecule: CCNC(=N)N [ethylguanidine]
- pK a (conjugate acid of rescue reagent) [1]: 13.3
- k rescue (17X-PTDH-R301A [2]; [11]): 0.52 (0.13) s^−1
- [drawing 6] (Brønsted plot ordinate; uses K R corrected for free base concentration at pH 7.25) (17X-PTDH-R301A [2]; R301A, pH 7.25): 6.1 (0.2)
- Rescue of activity of the R301A mutant (17X-PTDH-R301A [2]): markedly improved

Molecule: N=C(N)N [guanidine]
- pK a (conjugate acid of rescue reagent) [1]: 13.6
- k rescue/ K m, phosphite (17X-PTDH-R301A [2]; pH 7.25): 41 (4) M^−1 s^−1
- k rescue (17X-PTDH-R301A [2]; [11]): 1.2 (0.1) s^−1
- [drawing 6] (Brønsted plot ordinate; uses K R corrected for free base concentration at pH 7.25) (17X-PTDH-R301A [2]; R301A, pH 7.25): 8.1 (0.1)
- EC50 (17X-PTDH-R301A [2]; R301A): 18 mM
- K m, phosphite (apparent) (17X-PTDH-R301A [2]; R301A, pH 7.25): 30 (3) mM
- Rescue of activity of the R301A mutant (17X-PTDH-R301A [2]): markedly improved
- ^D k cat (17X-PTDH-R301A [3]): 1.8 (0.1)
- ^D k cat/K m (17X-PTDH-R301A [3]): 2.3 (0.1)

Molecule: NC(=O)NO [hydroxyurea]
- Rescue of activity of the R301A mutant (17X-PTDH-R301A [2]): not observed

Molecule: c1c[nH]cn1 [imidazole]
- Rescue of activity of H292G mutant (H292G mutant of wt-PTDH): no activity; also recorded: failed to result in any activity
- Rescue of activity of H292A mutant (H292A mutant of wt-PTDH): no activity; also recorded: failed to result in any activity

Molecule: CN [methylamine]
- Rescue of activity of H292G mutant (H292G mutant of wt-PTDH): no activity
- Rescue of activity of H292A mutant (H292A mutant of wt-PTDH): no activity
- Rescue of activity of the R301A mutant (17X-PTDH-R301A [2]): not observed

Molecule: CN=C(N)N [methylguanidine]
- pK a (conjugate acid of rescue reagent) [1]: 13.4
- k rescue/ K m, phosphite (17X-PTDH-R301A [2]; pH 7.25): 5.2 (1.1) M^−1 s^−1
- k rescue (17X-PTDH-R301A [2]; [11]): 0.68 (0.04) s^−1
- [drawing 6] (Brønsted plot ordinate; uses K R corrected for free base concentration at pH 7.25) (17X-PTDH-R301A [2]; R301A, pH 7.25): 7.2 (0.1)
- EC50 (17X-PTDH-R301A [2]; R301A): 55 mM
- K m, phosphite (apparent) (17X-PTDH-R301A [2]; R301A, pH 7.25): 130 (30) mM
- Rescue of activity of the R301A mutant (17X-PTDH-R301A [2]): markedly improved
- ^D k cat (17X-PTDH-R301A [3]): 1.4 (0.1)
- ^D k cat/K m (17X-PTDH-R301A [3]): 1.6 (0.5)

Molecule: O=S(O)O [sulfite]
- Ki (17X-PTDH [6]): 0.00031 mM
- Ki (17X-PTDH-R301A [7]; R301A + saturating 300 mM aminoguanidine): 0.078 mM
- Ki (17X-PTDH-R301A [7]; R301A, competitive vs phosphite, 4 mM NAD+): 0.13 mM

Molecule: NC(N)=S [thiourea]
- Rescue of activity of the R301A mutant (17X-PTDH-R301A [2]): not observed

Molecule: NC(N)=O [urea]
- Rescue of activity of the R301A mutant (17X-PTDH-R301A [2]): not observed

Molecule: phosphite
- K m of phosphite (R301A; R301A, pH 8.0, no rescue agent): 300 ± 35 mM
- Kd (R301A; calculated from ^D(V/K), ^DV and K m,Phosphite): 13 ± 2 mM
- Kd (17X-PTDH [8]): 0.023 ± 0.006 mM

B1: wt enzyme: wild-type phosphite dehydrogenase from Pseudomonas stutzeri WM88 (protein, UniProt O69054 1-336, looked up)
Phosphonate dehydrogenase: MLPKLVITHRVHDEILQLLAPHCELMTNQTDSTLTREEILRRCRDAQAMMAFMPDRVDADFLQACPELRVVGCALKGFDNFDVDACTARGVWLTFVPDLLTVPTAELAIGLAVGLGRHLRAADAFVRSGEFQGWQPQFYGTGLDNATVGILGMGAIGLAMADRLQGWGATLQYHEAKALDTQTEQRLGLRQVACSELFASSDFILLALPLNADTQHLVNAELLALVRPGALLVNPCRGSVVDEAAVLAALERGQLGGYAADVFEMEDWARADRPRLIDPALLAHPNTLFTPHIGSAVRAVRLEIERCAAQNIIQVLAGARPINAANRLPKAEPAAC
- solvent isotope effect (SIE) on k cat [9]: 1.55 and 1.55±0.07
- observed combined SIE and substrate KIE on kcat ([9]; ref (1) Relyea et al., 2005): 2.48
- substrate KIE on kcat [10]: 2.1
